Measured values: article PMC8409945, “In silico identification and experimental validation of cellular uptake and intracellular labeling by a new cell penetrating peptide derived from CDN1” (Drug Delivery, 2021)

Columns and labels:
[1] = test system: HepG2 cells; assay: Cellular uptake of FITC-labeled peptides, fluorescence microscopy and lysate fluorescence quantification; type: cell-based, human
Procedure: (§1) All cells (thawed cells were passaged less than 5 times) were suspended in 0.5 ml media and cultured in a 24-well plate at a concentration of 1.6 × 10^5 cells per well overnight. […] After incubation, the cells were washed with PBS three times and then imaged by fluorescence microscopy with 20 times lens (Nikon, Tokyo, Japan).
(§2) To determine the penetration efficiency of CPP, the cellular uptake of the indicated concentration of CPP was quantified by multimode spectrophotometry Peptide incubation. The washing step was the same as above, followed by cell lysate collection with 0.3 ml/well-lysing buffer (0.1 M NaOH) for 10 minutes, and then serially centrifuged at 110 g for 5 minutes. A plate-reader spectrophotometer (Tecan, Mannedorf, Switzerland) was used to quantify the fluorescence intensity of each well’s supernatant at the wavelengths of 485 nm in excitation and 535 nm in emission. The protein concentration of supernatant measured by Bradford assay was used to normalize fluorescence intensity. The fluorescence of cellular uptake was expressed as intensity per mg of total cellular protein. Experiments of quantification indicated in this paper were repeated at least three times.

[2] = test system: cells; assay: Cellular uptake of FITC-labeled peptides: comparison of CPPs, temperature and inhibitors (cell line not stated); type: cell-based; details: 1 h
Procedure: as §1, §2

[3] = Peptide aggregation assay by native PAGE; type: physicochemical; details: 4 µl peptide 500 µM in PBS, 6.5% native PAGE; Figure S5(B)
[4] = test system: mouse erythrocytes
Procedure: Mouse erythrocytes free of plasma components were isolated and purified from mouse blood by centrifugation and wash. […] A value of 100% cell lysis was measured by the incubation of erythrocytes incubated with 0.1% Triton X-100.

FITC-(Acp)-RKRRQTSMTDFYHSKRRLIFSKRK [P2]
Fluorescence microscopy and normalized fluorescence intensity versus incubation time [1]: significantly increased with incubation time
Penetrating efficiency at different temperature ([2]; FITC-P2 5 µM, different temperature, 3 replications, Figure 5(A,B)): temperature dependent
Penetration efficiency in the presence of endocytosis-related inhibitors ([2]; FITC-P2 5 µM, NaN3, NH4Cl, Heparin, Serum, MβCD, Wortmannin, hyperosmotic sucrose, Chlorpromazine, EIPA, 3 replications, Figure 5(C,D)): significantly decrease
Penetration in the presence of wortmannin and hyperosmotic sucrose ([2]; FITC-P2 5 µM, wortmannin and hyperosmotic sucrose, Figure 5(C,D)): slightly blocked
Penetration efficiency compared with well-known CPPs ([2]; FITC-labeled peptides 5 µM, microscopy and fluorescence intensity normalized to protein, 3 replications, Figure 4(C,D)): higher penetration efficiency than MT23 but lower than TAT and hPP10 and Dot1l
Aggregation propensity by native PAGE [3]: a single band of P2 and without apparent aggregation
Red blood cell membrane damage (hemolysis) [4]: did not observe red blood cell membrane damage
